Source: ChEMBL document CHEMBL5357021, “Novel Triazolopyridine-Based BRD4 Inhibitors as Potent HIV-1 Latency Reversing Agents” (ACS Med Chem Lett, 2024)
Active and inactive are the calls of the source. The rule behind the calls is not given here.

Tests used:
[1] = molecular target: Bromodomain-containing protein 4 (Homo sapiens) (UniProt O60885); assay: Inhibition of human BRD4 recruitment in J-Lat A10.6 cells contains HIV-1 long terminal repeats (LTR) assessed as reduction of BRD4 and HIV-1 LTR interaction at 10 uM incubated for 6 hrs by CHIP assay; format: cell-based; conditions: J-Lat 10.6
J-Lat 10.6 [2] = assay: Reversal of HIV-1 latency in human J-Lat10.6 cells contains HIV-1 long terminal repeats (LTR)-Tat-GFP assessed as reactivation measured at 10 uM after 48 hrs in presence of Efavirenz by flow cytometry; format: functional, cell-based; conditions: Human immunodeficiency virus 1
[3] = molecular target: Bromodomain-containing protein 4 (Homo sapiens) (UniProt O60885); assay: Inhibition of human BRD4 in J-lat 10.6 cells contains HIV-1 long terminal repeats (LTR)-Tat-GFP assessed as phosphorylated CDK9 expression at 2 to 50 uM measured after 24 hrs by Western blot analysis; format: cell-based; conditions: dose 2-50 µM
[4] = Effect on CXCR5 expression in human PBMC cells at 10 uM incubated for 48 hrs by flow cytometry; format: toxicity, cell-based
[5] = Synergistic reversal of HIV-1 latency in human J-Lat 10.6 cells contains HIV-1 long terminal repeats (LTR)-Tat-GFP assessed as increase in GFP-positive cells by measuring combination index at 10 uM incubated for 48 hrs in presence of N1-hydroxy-N8-phenyloctanediamide by flow cytometry; format: functional, Human immunodeficiency virus 1
PBMC [6] = assay: Cytotoxicity against human PBMC cells assessed as cell viability measured after 48 hrs by MTT assay; format: toxicity, cell-based
[7] = Cytotoxicity against human J-Lat A10.6 cells infected with HIV-1 assessed as cell viability measured after 48 hrs by MTT assay; format: toxicity, cell-based; conditions: j-lat 10.6, 48 h
[8] = molecular target: Bromodomain-containing protein 4 (Homo sapiens) (UniProt O60885); assay: Inhibition of BRD4 phosphorylation in human J-Lat A10.6 cells contains HIV-1 long terminal repeats (LTR)-Tat-GFP at 2 to 50 uM measured after 24 hrs by Western blotting analysis; format: cell-based; conditions: J-Lat 10.6, dose 2-50 µM
[9] = Cytotoxicity against human OM10.1 cells infected with HIV-1 assessed as cell viability measured after 48 hrs by MTT assay; format: toxicity, cell-based; conditions: om10.1, 48 h
PBMC [10] = assay: Effect on CXCR4 expression in human PBMC cells at 1 uM incubated for 48 hrs by flow cytometry; format: functional, cell-based
[11] = Effect on CXCR4 expression in human PBMC cells at 10 uM incubated for 48 hrs by flow cytometry; format: toxicity, cell-based
[12] = molecular target: Bromodomain-containing protein 4 (Homo sapiens) (UniProt O60885); assay: Inhibition of human BRD4 in J-lat 10.6 cells contains HIV-1 long terminal repeats (LTR)-Tat-GFP assessed as cyclin T1 expression at 2 to 50 uM measured after 24 hrs by Western blot analysis; format: cell-based; conditions: dose 2-50 µM
[13] = molecular target: Bromodomain-containing protein 4 (Homo sapiens) (UniProt O60885); assay: Inhibition of BRD4 in human J-Lat 10.6 cells contains HIV-1 long terminal repeats (LTR)-Tat-GFP assessed as increased CDK9 enrichment in LTR at 10 uM incubated for 6 hrs by ChiP assay; format: cell-based
[14] = molecular target: Bromodomain-containing protein 4 (Homo sapiens) (UniProt O60885); assay: Inhibition of BRD4 in human J-Lat 10.6 cells contains HIV-1 long terminal repeats (LTR)-Tat-GFP assessed as increased RNA pol II enrichment in LTR at 10 uM incubated for 6 hrs by ChiP assay; format: cell-based
[15] = system: Human immunodeficiency virus 1; assay: Reversal of HIV-1 latency in CD4+ T-lymphoid J-Lat cells contains HIV-1 long terminal repeats (LTR)-Tat-GFP assessed as reactivation measured after 48 hrs by flow cytometry; format: functional, organism-based; conditions: Human immunodeficiency virus 1, J-Lat 10.6, 48 h
ACH-2 cell line = assay: Cytotoxicity against human ACH-2 cell line cells infected with HIV-1 assessed as cell viability measured after 48 hrs by MTT assay; format: toxicity, cell-based; conditions: ach-2, 48 h
J-Lat 10.6 [16] = assay: Reversal of HIV-1 latency in human J-Lat10.6 cells contains HIV-1 long terminal repeats (LTR)-Tat-GFP assessed as reactivation measured at 10 uM after 48 hrs in presence of darunavir by flow cytometry; format: functional, cell-based; conditions: Human immunodeficiency virus 1
PBMC [17] = assay: Immune hyper-activation in human PBMC cells assessed as CD69 expression at 10 uM measured after 48 hrs by flow cytometry; format: toxicity, cell-based
[18] = system: Human immunodeficiency virus 1; assay: Reversal of HIV-1 latency in ACH-2 cell line contains complete HIV-1 provirus assessed as reactivation by measuring HIV-1 p24 antigen expression 5 uM measured after 48 hrs by ELISA; format: functional, organism-based
[19] = molecular target: Bromodomain-containing protein 4 (Homo sapiens) (UniProt O60885); assay: Inhibition of BRD4 BD2 domain (unknown origin) at 1 uM by HTRF assay
PBMC [20] = assay: Immune hyper-activation in human PBMC cells assessed as HLA-DR expression at 10 uM measured after 48 hrs by flow cytometry; format: toxicity, cell-based
PBMC [21] = assay: Immune hyper-activation in human PBMC cells assessed as CD25 expression at 10 uM measured after 48 hrs by flow cytometry; format: toxicity, cell-based
[22] = molecular target: Bromodomain-containing protein 4 (Homo sapiens) (UniProt O60885); assay: Inhibition of BRD4 BD1 domain (unknown origin) at 1 uM by HTRF assay
PBMC [23] = assay: Effect on CXCR5 expression in human PBMC cells at 1 uM incubated for 48 hrs by flow cytometry; format: functional, cell-based
[24] = molecular target: Bromodomain-containing protein 4 (Homo sapiens) (UniProt O60885); assay: Inhibition of human BRD4 in J-lat 10.6 cells contains HIV-1 long terminal repeats (LTR)-Tat-GFP assessed as CDK9 expression at 2 to 50 uM measured after 24 hrs by Western blot analysis; format: cell-based; conditions: dose 2-50 µM
J-Lat 10.6 [25] = assay: Reversal of HIV-1 latency in human J-Lat10.6 cells contains HIV-1 long terminal repeats (LTR)-Tat-GFP assessed as reactivation measured at 10 uM after 48 hrs in presence of raltegravir by flow cytometry; format: functional, cell-based; conditions: Human immunodeficiency virus 1
[26] = Cytotoxicity against human non-infected J-Lat A10.6 cells assessed as cell death by CCK8 assay; format: toxicity, cell-based, J-Lat 10.6
[27] = system: Human immunodeficiency virus 1; assay: Synergistic reversal of HIV-1 latency in human J-Lat 10.6 cells contains HIV-1 long terminal repeats (LTR)-Tat-GFP assessed as increase in GFP-positive cells by measuring combination index at 10 uM incubated for 48 hrs in presence of Prostratin by flow cytometry; format: functional

inhibition [1]: Active
inhibition [3]: Active
inhibition [8]: Active
inhibition [12]: inactive
inhibition [13]: Active
inhibition [14]: Active
EC50 [15]: 1.6 µM
inhibition [19]: Active
inhibition [22]: Active
inhibition [24]: inactive
Compound: Cc1nnc2ccc(-c3cc(NS(=O)(=O)c4ccc(F)cc4)ccc3Oc3ccc(F)cc3F)cn12
Activity (J-Lat 10.6 [2]): Active
Activity [4]: Not Active
CI [5]: 0.1
Activity (PBMC [6]): Non-Toxic
Activity [7]: Non-Toxic
Activity [9]: Non-Toxic
Activity (PBMC [10]): inactive
Activity [11]: Not Active
Activity (ACH-2 cell line): Non-Toxic
Activity (J-Lat 10.6 [16]): Active
Activity (PBMC [17]): Non-Toxic
Activity [18]: Active
Activity (PBMC [20]): Non-Toxic
Activity (PBMC [21]): Non-Toxic
Activity (PBMC [23]): inactive
Activity (J-Lat 10.6 [25]): Active
CC50 [26]: > 50 µM
CI [27]: 0.1
